The values that follow come from patent publication US20090053245A1, “Pharmacokinetics and Efficacy of Anti-Angiogenic Drugs and Drugs Treating Diseases of the Blood” (priority 2007, published 2009).

The conditions of data set [1]: in vivo; cited from earlier work.
For data set [2] the following is noted: non-transplant patients; cited from earlier work.
The target in data set [3] is T1, CYP3a4 (Homo sapiens, UniProt P08684).
T1 construct: purchased Invitrogen (Carlsbad, Calif.) P2856
In words: Fluorescence-based CYP3a4 assay (Invitrogen VIVID) with or without FKBP. Type of data set: in vitro ADME.

For data set [4], the target named is T2, vitamin K epoxide reductase (Mus musculus, UniProt Q9CRC0).
T2 construct: clotting time doubles after only about 8 hours for warfarin-SLF dosed mice; from tissue; host or cells: live mice dosed by gavage; clotting time measured on their blood
T2 sequence (Q9CRC0 1-161): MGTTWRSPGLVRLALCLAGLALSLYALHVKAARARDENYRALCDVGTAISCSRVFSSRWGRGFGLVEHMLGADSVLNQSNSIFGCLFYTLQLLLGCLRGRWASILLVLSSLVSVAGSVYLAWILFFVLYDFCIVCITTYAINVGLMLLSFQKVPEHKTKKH
In words: Time course of anticoagulant effect (Helena Thromboplastic Reagent MI clotting test). Type of data set: in vivo. To be noted: mice, 1.5 mg/kg by gavage in 0.5% methylcellulose. On the procedure:
Five mice per arm (fifteen animals total) were used for the test. […] The dose was 1.5 mg/kg, administered in 0.5% methylcellulose by gavage. The Helena Thromboplastic Reagent MI test (Helena Laboratories, Beaumont, Tex.) was employed to determine the duration of clotting.

T1 sequence (P08684 2-503 limits assumed): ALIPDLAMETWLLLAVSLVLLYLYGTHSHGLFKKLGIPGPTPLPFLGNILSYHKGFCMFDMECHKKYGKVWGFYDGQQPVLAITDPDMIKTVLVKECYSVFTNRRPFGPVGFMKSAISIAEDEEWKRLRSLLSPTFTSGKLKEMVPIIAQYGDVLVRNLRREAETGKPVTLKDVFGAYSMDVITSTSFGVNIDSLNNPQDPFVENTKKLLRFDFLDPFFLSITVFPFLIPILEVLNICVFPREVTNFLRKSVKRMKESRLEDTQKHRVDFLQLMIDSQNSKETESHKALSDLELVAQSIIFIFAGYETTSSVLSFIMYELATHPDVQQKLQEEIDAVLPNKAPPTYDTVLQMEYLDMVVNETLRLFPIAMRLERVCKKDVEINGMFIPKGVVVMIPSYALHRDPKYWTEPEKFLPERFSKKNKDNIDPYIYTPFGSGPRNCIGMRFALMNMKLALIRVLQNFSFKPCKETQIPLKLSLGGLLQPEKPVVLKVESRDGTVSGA

Consider `C=CC[C@@H]1/C=C(\C)C[C@H](C)C[C@H](OC)[C@H]2O[C@@](O)(C(=O)C(=O)N3CCCC[C@H]3C(=O)O[C@H](/C(C)=C/[C@@H]3CC[C@@H](O)[C@H](OC)C3)[C@H](C)[C@@H](O)CC1=O)[C@H](C)C[C@@H]2OC` [FK506], for which the “distribution in the blood” value in data set [1] was 72-98%. Also, the half-life in data set [2] was 21 h.
As for `COc1cc(/C=C/C(=O)CC(=O)/C=C/c2ccc(O)c(OC)c2)ccc1O` [curcumin], in data set [3] (in the presence of human FKBP (recombinant bacterially-expressed protein)), the “protection from degradation by CYP3a4” value is “unable to protect”. For the same compound, in data set [3] (no FKBP added), the “substrate for the enzyme CYP3a4” value was “good substrates”.
In the case of `CC(=O)CC(c1ccccc1)c1c(O)c2ccccc2oc1=O` (centres unmarked) [warfarin], in data set [4], the “time after which clotting time doubles” value turned out to be 18 h.
